From PubChem BioAssay AID1259408 (Genetic Toxicology Data Bank (GENE-TOX), 2018)
The source made the active and inactive calls. How the calls were made is not given here.

System: GENE-TOX genotoxicity assays, various organisms and cells
Test: GENE-TOX mutagenicity studies
Conditions: for call: Assay Type: In vivo carcinogenicity studies
[1] = Species/Cell Type: Mouse germ cells, Sex: Male, Assay Type: Unscheduled DNA synthesis (UDS) in vivo, DNA effects, Assay Code: UDT+, Evaluation Type: Evaluation A (Pre-1980)
[2] = Species/Cell Type: Rodents, Sex: Male, Assay Type: Dominant lethal test, Assay Code: DLT+, Evaluation Type: Evaluation A (Pre-1980)
[3] = Species/Cell Type: Human, Assay Type: Sister-chromatid exchange (SCE) in vitro, Assay Code: SC1+, Evaluation Type: Evaluation B (Post-1980)
[4] = Species/Cell Type: Nonhuman, Assay Type: Sister-chromatid exchange (SCE) in vivo, Assay Code: SC3T, Evaluation Type: Evaluation B (Post-1980)
[5] = Species/Cell Type: Salmonella typhimurium (one or more of the five standard strains: TA98, TA100, TA1535, TA1537, and TA1538), Assay Type: Histidine reverse gene mutation, Ames assay, Assay Code: SAL+, Evaluation Type: Evaluation A (Pre-1980)
[6] = Species/Cell Type: Mouse lymphoma (L5178Y) cells, Assay Type: Forward gene mutation at the thymidine kinase (TK) locus, chromosome aberrations, Assay Code: L51+, Evaluation Type: Evaluation A (Pre-1980)
[7] = Species/Cell Type: Nonhuman, Assay Type: Sister-chromatid exchange (SCE) in vitro, Assay Code: SC2+D, Dose Response: With dose response, Evaluation Type: Evaluation A (Pre-1980)
[8] = Species/Cell Type: Saccharomyces cerevisiae, Assay Type: Mitotic recombination or gene conversion, Assay Code: YEC+, Evaluation Type: Evaluation A (Pre-1980)
[9] = Species/Cell Type: Nonhuman, Assay Type: Sister-chromatid exchange (SCE) in vitro, Assay Code: SC2+, Evaluation Type: Evaluation B (Post-1980)

Question: Which results are given for `CCCOS(C)(=O)=O`?
Answer: mutagenic call (Species/Cell Type: Hordeum vulgare (barley), Assay Type: Chromosome aberrations, Assay Code: HOC+, Evaluation Type: Evaluation A (Pre-1980)): active; positive; mutagenic call (Species/Cell Type: Hordeum vulgare (barley), Assay Type: Gene mutation, Assay Code: HOM+D, Dose Response: With dose response, Evaluation Type: Evaluation A (Pre-1980)): active; positive; mutagenic call (Species/Cell Type: Mammalian germ cells, Sex: Male, Assay Type: Chromosome aberrations in vivo, Assay Code: CY9T, Evaluation Type: Evaluation A (Pre-1980)): no conclusion; mutagenic call [1]: active; positive; mutagenic call (Species/Cell Type: Mouse, Sex: Male, Assay Type: Specific locus test, gene mutation, Assay Code: SLT+, Evaluation Type: Evaluation A (Pre-1980)): active; positive; mutagenic call [2]: active; positive

Question: How did the mutagenic call (Species/Cell Type: Allium cepa, Assay Type: Chromosome aberrations, Assay Code: ALCT, Evaluation Type: Evaluation A (Pre-1980)) turn out when `Cc1cccc(O)c1` was run?
Answer: no conclusion

Question: And the mutagenic call (Species/Cell Type: Human lymphocytes, Assay Type: Sister-chromatid exchange (SCE) in vitro, Assay Code: SCLT, Evaluation Type: Evaluation B (Post-1980))?
Answer: no conclusion

Question: What about the mutagenic call [3] of the same compound?
Answer: active; positive

Question: What about the mutagenic call [4] of the same compound?
Answer: no conclusion

Question: `Cl/C=C/CCl` was tested. Which mutagenic call [5] did it give?
Answer: active; positive

Question: `CC(=O)Nc1nc(-c2ccc([N+](=O)[O-])s2)cs1` was tested. Which mutagenic call (Species/Cell Type: Salmonella typhimurium (one or more of the five standard strains: TA98, TA100, TA1535, TA1537, and TA1538), Assay Type: Histidine reverse gene mutation, Ames assay, Assay Code: SALT, Evaluation Type: Evaluation A (Pre-1980)) did it give?
Answer: no conclusion

Question: Which mutagenic call (Species/Cell Type: Arabidopsis species, Assay Type: Gene mutation, Assay Code: ARM-, Evaluation Type: Evaluation A (Pre-1980)) does the source give for `OCSc1ncc[nH]1` here?
Answer: inactive; negative

Question: For `NC(=O)C#CC(N)=O`, which mutagenic call (Species/Cell Type: Bacillus subtilis (H17 vs M45), Assay Type: Rec-assay, spot test, DNA effects (bacterial DNA repair), Assay Code: REW-, Evaluation Type: Evaluation A (Pre-1980)) is on record?
Answer: inactive; negative

Question: `CCN(CC)CCNc1ccc(CO)c2sc3ccccc3c(=O)c12` was tested. Which mutagenic call (Species/Cell Type: Drosophila melanogaster, Assay Type: Sex-linked recessive lethal gene mutation, Assay Code: SRL+, Evaluation Type: Evaluation A (Pre-1980)) did it give?
Answer: active; positive

Question: And the mutagenic call (Species/Cell Type: Drosophila melanogaster, Assay Type: Sex-linked recessive lethal gene mutation, Assay Code: SRLT, Evaluation Type: Evaluation A (Pre-1980))?
Answer: no conclusion

Question: And the mutagenic call (Species/Cell Type: Drosophila melanogaster, Sex: Male, Assay Type: Heritable translocation test, chromosome aberrations, Assay Code: DHT-, Evaluation Type: Evaluation A (Pre-1980))?
Answer: inactive; negative

Question: What about the mutagenic call (Species/Cell Type: Fischer rat embryo (RLV/1706) cells, Assay Type: Cell transformation, viral enhanced, Assay Code: CTR+, Evaluation Type: Evaluation A (Pre-1980)) of the same compound?
Answer: active; positive

Question: What about the mutagenic call (Species/Cell Type: Glycine max (soybean), Assay Type: Gene mutation, Assay Code: GLM-, Evaluation Type: Evaluation A (Pre-1980)) of the same compound?
Answer: inactive; negative

Question: And the mutagenic call (Species/Cell Type: Mammalian polychromatic erythrocytes, Assay Type: Micronucleus test, chromosome aberrations, Assay Code: MNT+, Evaluation Type: Evaluation A (Pre-1980))?
Answer: active; positive

Question: What about the mutagenic call (Species/Cell Type: Mouse (C3H/10T1/2) cells, Assay Type: Cell transformation, Assay Code: CTH+, Evaluation Type: Evaluation A (Pre-1980)) of the same compound?
Answer: active; positive

Question: And the mutagenic call [1]?
Answer: active; positive

Question: What about the mutagenic call [6] of the same compound?
Answer: active; positive

Question: And the mutagenic call (Species/Cell Type: Mouse, Sex: Female, Assay Type: Spot test, gene mutation, Assay Code: MSTT, Evaluation Type: Evaluation A (Pre-1980))?
Answer: no conclusion

Question: What about the mutagenic call (Species/Cell Type: Mouse, Sex: Male, Assay Type: Specific locus test, gene mutation, Assay Code: SLT-, Evaluation Type: Evaluation A (Pre-1980)) of the same compound?
Answer: inactive; negative

Question: What about the mutagenic call (Species/Cell Type: Mouse, Sex: Male, Assay Type: Sperm morphology, Assay Code: SPI+, Evaluation Type: Evaluation A (Pre-1980)) of the same compound?
Answer: active; positive

Question: And the mutagenic call (Species/Cell Type: Neurospora crassa, Assay Type: Aneuploidy, chromosome aberrations, Assay Code: NEN-, Evaluation Type: Evaluation A (Pre-1980))?
Answer: inactive; negative

Question: What about the mutagenic call (Species/Cell Type: Neurospora crassa, Assay Type: Forward gene mutation, Assay Code: NEF+, Evaluation Type: Evaluation A (Pre-1980)) of the same compound?
Answer: active; positive

Question: And the mutagenic call (Species/Cell Type: Nonhuman bone marrow, Assay Type: Chromosome aberrations, in vivo, Assay Code: CY#T, Evaluation Type: Evaluation A (Pre-1980))?
Answer: no conclusion

Question: What about the mutagenic call (Species/Cell Type: Nonhuman, Assay Type: Chromosome aberrations in vitro, Assay Code: CY&T, Evaluation Type: Evaluation A (Pre-1980)) of the same compound?
Answer: no conclusion

Question: What about the call (Species/Cell Type: Nonhuman, Assay Code: CCG-L, Evaluation Type: Evaluation A (Pre-1980)) of the same compound?
Answer: inactive; negative

Question: What about the mutagenic call [7] of the same compound?
Answer: active; positive

Question: And the mutagenic call (Species/Cell Type: Nonhuman, Assay Type: Sister-chromatid exchange (SCE) in vivo, Assay Code: SC3+D, Dose Response: With dose response, Evaluation Type: Evaluation B (Post-1980))?
Answer: active; positive

Question: And the mutagenic call [2]?
Answer: active; positive

Question: And the mutagenic call (Species/Cell Type: Rodents, Sex: Male, Assay Type: Dominant lethal test, Assay Code: DLT-, Evaluation Type: Evaluation A (Pre-1980))?
Answer: inactive; negative

Question: What about the mutagenic call [8] of the same compound?
Answer: active; positive

Question: What about the mutagenic call (Species/Cell Type: Saccharomyces cerevisiae, Assay Type: Mitotic recombination or gene conversion, Assay Code: YEH+, Evaluation Type: Evaluation A (Pre-1980)) of the same compound?
Answer: active; positive

Question: What about the mutagenic call (Species/Cell Type: Saccharomyces cerevisiae, Assay Type: Reverse gene mutation, Assay Code: YER+, Evaluation Type: Evaluation A (Pre-1980)) of the same compound?
Answer: active; positive

Question: What about the mutagenic call [5] of the same compound?
Answer: active; positive

Question: And the mutagenic call (Species/Cell Type: Salmonella typhimurium, Assay Type: Forward and reverse gene mutation, body fluid assay, Assay Code: BFU+, Evaluation Type: Evaluation A (Pre-1980))?
Answer: active; positive

Question: And the mutagenic call (Species/Cell Type: Salmonella typhimurium, Assay Type: Forward and reverse gene mutation, host-mediated assay, Assay Code: HMA+, Evaluation Type: Evaluation A (Pre-1980))?
Answer: active; positive

Question: And the mutagenic call (Species/Cell Type: Schizosaccharomyces pombe, Assay Type: Forward gene mutation, Assay Code: YEY+, Evaluation Type: Evaluation A (Pre-1980))?
Answer: active; positive

Question: What about the mutagenic call (Species/Cell Type: Syrian hamster embryo (SHE) cells, Assay Type: Cell transformation, clonal assay, Assay Code: CTC+, Evaluation Type: Evaluation A (Pre-1980)) of the same compound?
Answer: active; positive

Question: `Oc1cccc2ncccc12` was tested. Which mutagenic call (Species/Cell Type: Salmonella typhimurium (one or more of the five standard strains: TA98, TA100, TA1535, TA1537, and TA1538), Assay Type: Histidine reverse gene mutation, Ames assay, Assay Code: SAL+*, Activation: With metabolic activation, Evaluation Type: Evaluation A (Pre-1980)) did it give?
Answer: active; positive

Question: `O=NN1CCC[C@H]1c1cccnc1` was tested. Which call (Species/Cell Type: Nonhuman, Assay Code: CCG+, Evaluation Type: Evaluation A (Pre-1980)) did it give?
Answer: active; positive

Question: And the mutagenic call (Species/Cell Type: Rat primary hepatocytes, Assay Type: Unscheduled DNA synthesis (UDS) in vitro, DNA effects, Assay Code: UDP+, Evaluation Type: Evaluation A (Pre-1980))?
Answer: active; positive

Question: How did the mutagenic call (Species/Cell Type: Bacillus subtilis (H17 vs M45), Assay Type: Rec-assay, spot test, DNA effects (bacterial DNA repair), Assay Code: REWT, Evaluation Type: Evaluation A (Pre-1980)) turn out when `CCOP(=S)(OCC)Oc1cc(C)nc(C(C)C)n1` was run?
Answer: no conclusion

Question: And the mutagenic call (Species/Cell Type: Escherichia coli WP2 UVRA, Assay Type: Tryptophan reverse gene mutation, Assay Code: WPU-*, Activation: With metabolic activation, Evaluation Type: Evaluation A (Pre-1980))?
Answer: inactive; negative

Question: And the mutagenic call (Species/Cell Type: Escherichia coli polA (W3119 vs P3478), Assay Type: Rec-assay, DNA effects (bacterial DNA repair), Assay Code: RE1T, Evaluation Type: Evaluation A (Pre-1980))?
Answer: no conclusion

Question: And the mutagenic call (Species/Cell Type: Human diploid fibroblasts, Assay Type: Unscheduled DNA synthesis (UDS) in vitro, DNA effects, Assay Code: UDH-, Evaluation Type: Evaluation A (Pre-1980))?
Answer: inactive; negative

Question: What about the mutagenic call [3] of the same compound?
Answer: active; positive

Question: And the call (Species/Cell Type: Nonhuman, Assay Code: CCG-, Evaluation Type: Evaluation A (Pre-1980))?
Answer: inactive; negative

Question: What about the mutagenic call [9] of the same compound?
Answer: active; positive

Question: And the mutagenic call (Species/Cell Type: Saccharomyces cerevisiae, Assay Type: Mitotic recombination or gene conversion, Assay Code: YEH-, Evaluation Type: Evaluation A (Pre-1980))?
Answer: inactive; negative

Question: And the mutagenic call (Species/Cell Type: Salmonella typhimurium (one or more of the five standard strains: TA98, TA100, TA1535, TA1537, and TA1538), Assay Type: Histidine reverse gene mutation, Ames assay, Assay Code: SAL-, Evaluation Type: Evaluation A (Pre-1980))?
Answer: inactive; negative

Question: Which mutagenic call (Species/Cell Type: Drosophila melanogaster, Assay Type: Aneuploidy, sex chromosome gain, chromosome aberrations, Assay Code: DAGT, Evaluation Type: Evaluation A (Pre-1980)) does the source give for `Nc1ccc2cc3ccc(N)cc3nc2c1` here?
Answer: no conclusion

Question: What about the mutagenic call (Species/Cell Type: Drosophila melanogaster, Assay Type: Aneuploidy, whole sex chromosome loss, chromosome aberrations, Assay Code: DAC+F, Evaluation Type: Evaluation A (Pre-1980)) of the same compound?
Answer: active; positive

Question: What about the mutagenic call (Species/Cell Type: Escherichia coli polA (W3119 vs P3478), Assay Type: Rec-assay, DNA effects (bacterial DNA repair), Assay Code: RE1+, Evaluation Type: Evaluation A (Pre-1980)) of the same compound?
Answer: active; positive

Question: What about the mutagenic call (Species/Cell Type: Human lymphocytes, Assay Type: Sister-chromatid exchange (SCE) in vitro, Assay Code: SCL+, Evaluation Type: Evaluation B (Post-1980)) of the same compound?
Answer: active; positive

Question: What about the mutagenic call [3] of the same compound?
Answer: active; positive

Question: And the mutagenic call [6]?
Answer: active; positive

Question: What about the call (Species/Cell Type: Nonhuman, Assay Code: CCGT, Evaluation Type: Evaluation A (Pre-1980)) of the same compound?
Answer: no conclusion

Question: What about the mutagenic call [9] of the same compound?
Answer: active; positive

Question: What about the mutagenic call [7] of the same compound?
Answer: active; positive

Question: What about the mutagenic call (Species/Cell Type: Nonhuman, Assay Type: Sister-chromatid exchange (SCE) in vivo, Assay Code: SC3-, Evaluation Type: Evaluation A (Pre-1980)) of the same compound?
Answer: inactive; negative

Question: What about the mutagenic call [4] of the same compound?
Answer: no conclusion

Question: And the mutagenic call [8]?
Answer: active; positive

Question: And the mutagenic call (Species/Cell Type: Saccharomyces cerevisiae, Assay Type: Mitotic recombination or gene conversion, Assay Code: YECT, Evaluation Type: Evaluation A (Pre-1980))?
Answer: no conclusion

Question: And the mutagenic call [5]?
Answer: active; positive
